Tests used:
human TLR7 = target: T1, human TLR7 (Homo sapiens, UniProt Q9NYK1); assay: Human TLR7 agonist activity assay (HEK-Blue TLR7 SEAP reporter); assay type: cell-based; conditions: HEK-Blue TLR7 cells, 18 h treatment, average where assay performed multiple times, read-out: hTLR7 Agonism EC50
T1 construct: host or cells: HEK-Blue TLR7 cells (engineered human embryonic kidney cells)
T1 sequence (Q9NYK1 27-1049): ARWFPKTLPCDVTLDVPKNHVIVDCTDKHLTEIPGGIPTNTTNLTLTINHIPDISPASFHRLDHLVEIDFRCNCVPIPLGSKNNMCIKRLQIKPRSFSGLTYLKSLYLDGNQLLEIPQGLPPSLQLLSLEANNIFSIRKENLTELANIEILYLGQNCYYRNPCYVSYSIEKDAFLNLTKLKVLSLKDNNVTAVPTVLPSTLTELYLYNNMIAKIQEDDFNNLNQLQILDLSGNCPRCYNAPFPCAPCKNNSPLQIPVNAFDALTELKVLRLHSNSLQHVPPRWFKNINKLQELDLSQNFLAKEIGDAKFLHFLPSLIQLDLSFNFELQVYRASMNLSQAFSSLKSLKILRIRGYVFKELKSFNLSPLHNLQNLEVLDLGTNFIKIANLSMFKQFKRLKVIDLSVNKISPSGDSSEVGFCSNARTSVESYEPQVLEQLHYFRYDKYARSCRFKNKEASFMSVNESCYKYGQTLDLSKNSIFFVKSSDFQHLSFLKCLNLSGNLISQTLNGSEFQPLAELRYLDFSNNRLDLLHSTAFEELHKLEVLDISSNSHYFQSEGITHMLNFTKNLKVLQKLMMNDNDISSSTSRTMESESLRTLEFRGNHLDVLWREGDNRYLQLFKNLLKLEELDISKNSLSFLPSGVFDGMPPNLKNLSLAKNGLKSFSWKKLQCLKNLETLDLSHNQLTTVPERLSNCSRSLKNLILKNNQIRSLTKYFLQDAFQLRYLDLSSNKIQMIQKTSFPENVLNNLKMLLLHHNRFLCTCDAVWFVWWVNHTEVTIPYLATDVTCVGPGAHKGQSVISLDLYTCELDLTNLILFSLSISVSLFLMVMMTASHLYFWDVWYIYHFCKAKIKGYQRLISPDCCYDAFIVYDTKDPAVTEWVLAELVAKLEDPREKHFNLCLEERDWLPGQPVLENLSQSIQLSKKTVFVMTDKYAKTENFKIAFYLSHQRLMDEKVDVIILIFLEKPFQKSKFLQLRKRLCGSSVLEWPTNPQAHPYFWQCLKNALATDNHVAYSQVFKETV
Summary of the method: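 HEK-Blue TLR7 cells (15,000/well) treated with compound for 18 h at 37 °C, 5% CO2. Secreted SEAP measured with Quanti-Blue, 30 min, OD 620 nm. EC50 taken as concentration giving half-maximal response between baseline and maximum.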

CD69 = assay: Induction of CD69 in human whole blood; assay type: cell-based; conditions: Homo sapiens, 17 h, 100% set to 1 uM of resiquimod, average where assay performed multiple times, read-out: hWB CD69 EC50
Procedure: The induction of Type I interferon (IFN) MX-1 genes and the B-cell activation marker CD69 are downstream events that occur upon activation of the TLR7 pathway. The following is a human whole blood assay that measures their induction in response to a TLR7 agonist.
Heparinized human whole blood was harvested from human subjects and treated with test TLR7 agonist compounds at 1 mM. The blood was diluted with RPMI 1640 media and Echo was used to predot 10 nL per well giving a final concentration of 1 uM (10 nL in 10 uL of blood). After mixing on a shaker for 30 sec, the plates were covered and placed in a 37° C. chamber for o/n=17 hrs. Fixing/lysis buffer was prepared (5×->1× in H2O, warm at 37° C.; Cat #BD 558049) and kept the perm buffer (on ice) for later use.
For surface markers staining (CD69): prepared surface Abs: 0.045 ul hCD14-FITC (ThermoFisher Cat #MHCD1401)+0.6 ul hCD19-ef450 (ThermoFisher Cat #48-0198-42)+1.5 ul hCD69-PE (cat #BD555531)+0.855 ul FACS buffer. Added 3 ul/well, spin1000 rpm for 1 min and mixed on shaker for 30 sec, put on ice for 30 mins. Stop stimulation after 30 minutes with 70 uL of prewarmed 1× fix/lysis buffer and use Feliex mate to resuspend (15 times, change tips for each plate) and incubate at 37 C for 10 minutes.
Centrifuge at 2000 rpm for 5 minutes aspirate with HCS plate washer, mix on shaker for 30 sec and then wash with 70 uL in dPBS and pelleted 2×s (2000 rpm for 5 min) and 50 ul wash in FACS buffer pelleted 1×s (2000 rpm for 5 min). Mix on shaker for 30 sec. For Intracellular markers staining (MX-1): Add 50 ul of BD Perm buffer III and mix on shaker for 30 sec. Incubate on ice for 30 minutes (in the dark). Wash with 50 uL of FACS buffer 2×(spin @2300 rpm×5 min after perm) followed by mixing on shaker for 30 sec. Resuspended in 20 ul of FACS buffer containing MX1 antibody ( )(4812)-Alexa 647: Novus Biologicals #NBP2-43704AF647) 20 ul FACS bf+0.8 ul hIgG+0.04 ul MX-1. Spin 1000 rpm for 1 min, mix on shaker for 30 se and the samples were incubated at RT in the dark for 45 minutes followed by washing 2×FACS buffer (spin @2300 rpm×5 min after perm). Resuspend 20 ul (35 uL total per well) of FACS buffer and cover with foil and place in 4° C. to read the following day. Plates were read on iQuePlus. The results were loaded into toolset and IC50 curves are generated in curve master. The y-axis 100% is set to 1 uM of resiquimod.

Compound	EC50 (human TLR7)	EC50 (CD69)
CCC[C@@H](CCO)Nc1nc(N)nc2cnn(Cc3ncc(C4CCN(C(=O)CN(C)C)CC4)cc3OC)c12 [Compound 135, 1-(4-{6-[(5-amino-7-{[(3S)-1-hydroxyhexan-3-yl]amino}-1H-pyrazolo[4,3-d]pyrimidin-1-yl)methyl]-5-methoxypyridin-3-yl}piperidin-1-yl)-2-(dimethylamino)ethan-1-one]	41.4 nM	11.7 nM
CCC[C@@H](CCO)Nc1nc(N)nc2cnn(Cc3ncc(C4CCN(C(=O)CCN(C)C)CC4)cc3OC)c12 [Compound 136, 1-(4-{6-[(5-amino-7-{[(3S)-1-hydroxyhexan-3-yl]amino}-1H-pyrazolo[4,3-d]pyrimidin-1-yl)methyl]-5-methoxypyridin-3-yl}piperidin-1-yl)-3-(dimethylamino)propan-1-one]	197 nM	42.3 nM
COc1cc(C2CCNCC2)cnc1Cn1ncc2nc(N)nc(NCc3cc(C)on3)c21 [Compound 137, 1-{[3-methoxy-5-(piperidin-4-yl)pyridin-2-yl]methyl}-N7-[(5-methyl-1,2-oxazol-3-yl)methyl]-1H-pyrazolo[4,3-d]pyrimidine-5,7-diamine]	357 nM	118 nM
CCC[C@@H](CCO)Nc1nc(N)nc2cnn(Cc3ncc(C4CCN(C5CN(C)C5)CC4)cc3OC)c12 [Compound 138, (3S)-3-{[5-amino-1-({3-methoxy-5-[1-(1-methylazetidin-3-yl)piperidin-4-yl]pyridin-2-yl}methyl)-1H-pyrazolo[4,3-d]pyrimidin-7-yl]amino}hexan-1-ol]	26.7 nM	5.6 nM
CCC[C@@H](CCO)Nc1nc(N)nc2cnn(Cc3ncc(C4CCN(C5CN(C(C)C)C5)CC4)cc3OC)c12 [Compound 139, (3S)-3-({5-amino-1-[(3-methoxy-5-{1-[1-(propan-2-yl)azetidin-3-yl]piperidin-4-yl}pyridin-2-yl)methyl]-1H-pyrazolo[4,3-d]pyrimidin-7-yl}amino)hexan-1-ol]	8.1 nM	1.1 nM
COc1cc(C2CCN(C(=O)CCN(C)C)CC2)cnc1Cn1ncc2nc(N)nc(NCc3cc(C)on3)c21 [Compound 140, 1-(4-{6-[(5-amino-7-{[(5-methyl-1,2-oxazol-3-yl)methyl]amino}-1H-pyrazolo[4,3-d]pyrimidin-1-yl)methyl]-5-methoxypyridin-3-yl}piperidin-1-yl)-3-(dimethylamino)propan-1-one]	530 nM	128 nM
COc1cc(C2CCN(C3CCOCC3)CC2)cnc1Cn1ncc2nc(N)nc(NCc3cc(C)on3)c21 [Compound 141, 1-({3-methoxy-5-[1-(oxan-4-yl)piperidin-4-yl]pyridin-2-yl}methyl)-N7-[(5-methyl-1,2-oxazol-3-yl)methyl]-1H-pyrazolo[4,3-d]pyrimidine-5,7-diamine]	73.2 nM	16.2 nM
COc1cc(C2CCN(C(C)C)CC2)cnc1Cn1ncc2nc(N)nc(NCc3cc(C)on3)c21 [Compound 142, 1-({3-methoxy-5-[1-(propan-2-yl)piperidin-4-yl]pyridin-2-yl}methyl)-N7-[(5-methyl-1,2-oxazol-3-yl)methyl]-1H-pyrazolo[4,3-d]pyrimidine-5,7-diamine]	43.3 nM	5.6 nM
COc1cc(C2CCN(C3CNC3)CC2)cnc1Cn1ncc2nc(N)nc(NCc3cc(C)on3)c21 [Compound 143, 1-({5-[1-(azetidin-3-yl)piperidin-4-yl]-3-methoxypyridin-2-yl}methyl)-N7-[(5-methyl-1,2-oxazol-3-yl)methyl]-1H-pyrazolo[4,3-d]pyrimidine-5,7-diamine]	295 nM	265 nM
COc1cc(C2CCN(CCO)CC2)cnc1Cn1ncc2nc(N)nc(NCc3cc(C)on3)c21 [Compound 144, 2-(4-{6-[(5-amino-7-{[(5-methyl-1,2-oxazol-3-yl)methyl]amino}-1H-pyrazolo[4,3-d]pyrimidin-1-yl)methyl]-5-methoxypyridin-3-yl}piperidin-1-yl)ethan-1-ol]	77 nM	8.7 nM
CCCCNc1nc(N)nc2cnn(Cc3ncc(C4CCN(CC(C)(C)O)CC4)cc3OC)c12 [Compound 146, 1-[4-(6-{[5-amino-7-(butylamino)-1H-pyrazolo[4,3-d]pyrimidin-1-yl]methyl}-5-methoxypyridin-3-yl)piperidin-1-yl]-2-methylpropan-2-ol]	28.5 nM	25.8 nM
CCC[C@@H](CCO)Nc1nc(N)nc2cnn(Cc3ncc(C4CCN(C5CC6(CCC6)C5)CC4)cc3OC)c12 [Compound 147, (3S)-3-[(5-amino-1-{[3-methoxy-5-(1-{spiro[3.3]heptan-2-yl}piperidin-4-yl)pyridin-2-yl]methyl}-1H-pyrazolo[4,3-d]pyrimidin-7-yl)amino]hexan-1-ol]	15.7 nM	2.1 nM
CCC[C@@H](CCO)Nc1nc(N)nc2cnn(Cc3ncc(C4CCN(C5CC6(COC6)C5)CC4)cc3OC)c12 [Compound 148, (3S)-3-[(5-amino-1-{[3-methoxy-5-(1-{2-oxaspiro[3.3]heptan-6-yl}piperidin-4-yl)pyridin-2-yl]methyl}-1H-pyrazolo[4,3-d]pyrimidin-7-yl)amino]hexan-1-ol]	14.1 nM	0.49 nM
CCCCNc1nc(N)nc2c(Cl)nn(Cc3ncc(C4CCN(C5CCOCC5)CC4)cc3OC)c12 [Compound 149, N7-butyl-3-chloro-1-({3-methoxy-5-[1-(oxan-4-yl)piperidin-4-yl]pyridin-2-yl}methyl)-1H-pyrazolo[4,3-d]pyrimidine-5,7-diamine]	869 nM	590 nM
CCC[C@@H](CCO)Nc1nc(N)nc2cnn(Cc3ncc(C4CCN(C5CC6(CNC6)C5)CC4)cc3OC)c12 [Compound 150, (3S)-3-[(5-amino-1-{[5-(1-{2-azaspiro[3.3]heptan-6-yl}piperidin-4-yl)-3-methoxypyridin-2-yl]methyl}-1H-pyrazolo[4,3-d]pyrimidin-7-yl)amino]hexan-1-ol]	88.8 nM	44.1 nM
CCC[C@@H](CCO)Nc1nc(N)nc2cnn(Cc3ncc(C4CCN(CC(C)(C)O)CC4)cc3OC)c12 [Compound 151, (3S)-3-{[5-amino-1-({5-[1-(2-hydroxy-2-methylpropyl)piperidin-4-yl]-3-methoxypyridin-2-yl}methyl)-1H-pyrazolo[4,3-d]pyrimidin-7-yl]amino}hexan-1-ol]	15.2 nM	0.32 nM
